Results taken from ChEMBL document CHEMBL1129897 (Bioorg Med Chem Lett, 1997).

biological target: 5-hydroxytryptamine receptor 2A (Rattus norvegicus, UniProt P14842); assay: Tested in vitro for its ability to inhibit [3H]ketanserin binding to 5-hydroxytryptamine 2A receptor in rat frontal cortex membranes; assay type: cell membranes, Membrane
Sequence (P14842 whole entry): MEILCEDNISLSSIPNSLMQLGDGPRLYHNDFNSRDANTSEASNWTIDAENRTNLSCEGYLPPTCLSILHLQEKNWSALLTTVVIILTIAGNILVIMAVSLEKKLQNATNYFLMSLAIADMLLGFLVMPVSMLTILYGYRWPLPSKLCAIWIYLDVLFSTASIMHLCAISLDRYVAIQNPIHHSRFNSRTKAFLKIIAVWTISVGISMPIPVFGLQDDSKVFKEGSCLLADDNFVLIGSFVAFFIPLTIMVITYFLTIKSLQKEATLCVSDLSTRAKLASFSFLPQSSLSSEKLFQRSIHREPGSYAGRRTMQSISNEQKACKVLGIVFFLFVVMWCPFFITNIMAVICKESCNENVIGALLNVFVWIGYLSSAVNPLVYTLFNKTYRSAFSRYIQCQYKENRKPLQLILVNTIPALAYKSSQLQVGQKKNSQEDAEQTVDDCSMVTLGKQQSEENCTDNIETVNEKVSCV

| Ki [nM] | Structure (SMILES) |
| --- | --- |
| 6.17 | CCc1c(C)[nH]c2c1C(=O)CC(CN1CCC(C(=O)c3ccc(F)cc3)CC1)C2 (centres undefined) |
| 5.01 | CCc1c(C)[nH]c2c1C(=O)CC(CN1CCC(c3noc4cc(F)ccc34)CC1)C2 (centres undefined) |
| 398 | CCc1c(C)[nH]c2c1C(=O)CC(CN1CCN(CCCC(=O)c3ccc(F)cc3)CC1)C2 (centres undefined) |
| 282 | CCc1c(C)[nH]c2c1C(=O)CC(CN1CCN(c3ccccc3OC)CC1)C2 (centres undefined) |
